# Biological target: Human DGAT2 (Homo sapiens (Human), UniProt Q96PD7)
# Experiment: DGAT2 Enzymatic Activity Assay (triolein formation, LC/MS/MS)
# Assay type: biochemical
# Settings: hDGAT2 Sf-9 membrane prep; 25 μM diolein, 10 μM oleoyl-CoA; room temperature
# Method: Sf-9 insect cells were maintained in Grace's insect cell culture medium with 10% heated-inactivated fetal bovine serum, 1% Pluronic F-68 and 0.14 μg/m Kanamycine sulfate in Erlenmeyer flasks at 28° C. in a shaker incubator. After infection with untagged hDGAT2 baculovirus at multiplicity of infection (MOI) 0.1 for 48 hours, cells were harvested. Cell pellets were suspended in buffer containing 10 mM Tris-HC (pH 7.5), 1 mM EDTA (pH 8.0), 250 mM sucrose and Complete Protease Inhibitor Cocktail (Roche Diagnostics Corp., Indianapolis, Ill.), and sonicated on ice. Membrane fractions were isolated by ultracentrifugation (100,000×g pellet), resuspended in the same buffer, and frozen (−80° C.) for later use. The protein concentration was determined with the BCA Protein Assay kit (Pierce Biotechnology Inc., Rockford, Ill.). Expression of protein levels was analyzed by immunoblotting with goat polyclonal DGAT2 antibody C-15 and donkey anti-goat IgG HRP (Santa Cruz Biotechnology, Inc., Santa Cruz, Calif.) followed by detection with ECL reagent (GE Healthcare, Piscataway, N.J.).
# LC/MS/MS analyses were performed using Thermal Fisher's LX4-TSQ Vantage system. This system consists of an Agilent binary high-performance liquid chromatography (HPLC) pumps and a TSQ Vantage triple quadrupole MS/MS instrument. For each sample, 2 μL samples from the top organic layer of in-plate liquid-liquid extraction were injected onto a Thermo Betabasic C4 column (2.1 mm×20 mm, 5 μm particle size). The samples were then eluted using the following conditions; mobile phase: MeOH/water with 0.1% ammonium format=92/8 (v/v), flow rate: 1 mL/min, temperature: 25 C. Data was acquired in positive mode using a heated electrospray ionization (HESI) interface. The operational parameters for the TSQ Vantage MS/MS instrument were a spray voltage of 3000 V, capillary temperature of 280° C., vaporizer temperature 400° C., shealth gas 60 arbitrary unit, Aux gas 40 arbitrary units, S-lens 113 and collision gas 0.16 Pascals. […] (SRM) chromatograms of triolein (Q1: 902.9>Q3:602.3) and internal standard ([…]) were collected for 40 sec. The peak area was integrated by Xcalibur Quan software. The ratio between the triolein generated in the reaction and spiked in internal standard was used to generate percentage inhibition and IC50 values. Compound percentage inhibition was calculated by the following formula: Inhibition %=1−[(compound response−low control)/(high control−low control)]×100%. Potent compounds were titrated and IC50 were calculated by 4 parameter sigmoidal curve fitting formula.
# DGAT2 activity was determined by measuring the amount of enzymatic product triolein (1,2,3-Tri(cis-9-octadecenoyl)glycerol) using the membrane prep mentioned above. The assay was carried out in deep well 384 plates in a final volume of 40 μL at room temperature. The assay mixture contained the following: assay buffer (100 mM Tris.Cl, pH 7.0, 20 mM MgCl2, 5% ethanol), 25 μM of diolein, 10 μM of oleoyl-CoA and 10 ng/μL of DGAT2 membrane.
# Chain of Human DGAT2 (Q96PD7 whole entry): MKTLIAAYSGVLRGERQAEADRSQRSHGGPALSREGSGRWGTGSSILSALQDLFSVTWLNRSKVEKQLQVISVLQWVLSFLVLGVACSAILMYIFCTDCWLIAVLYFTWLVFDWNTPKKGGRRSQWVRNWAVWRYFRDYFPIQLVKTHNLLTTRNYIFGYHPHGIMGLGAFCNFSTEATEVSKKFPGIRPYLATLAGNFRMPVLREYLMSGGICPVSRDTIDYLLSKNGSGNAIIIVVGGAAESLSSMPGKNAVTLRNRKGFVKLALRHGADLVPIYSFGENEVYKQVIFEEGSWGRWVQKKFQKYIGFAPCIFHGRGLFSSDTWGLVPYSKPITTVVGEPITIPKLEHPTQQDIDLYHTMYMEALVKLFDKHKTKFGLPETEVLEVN
row,SMILES,IC50 [µM]
1,"O=C(NC1CCC(F)(F)C1)c1ccc2c(-c3ccccc3Cl)nn(-c3ccc(F)cc3)c2c1 (racemic) [Example 64, 3-(2-chlorophenyl)-N-(3,3-difluorocyclopentyl)-1-(4-fluorophenyl)-1H-indazole-6-carboxamide]",0.132
2,"CCC(CO)NC(=O)c1ccc2c(-c3ccccc3Cl)nn(-c3ccc(F)cc3)c2c1 (racemic) [Example 65, 3-(2-chlorophenyl)-1-(4-fluorophenyl)-N-[1-(hydroxyinethyl)propyl]-1H-indazole-6-carboxamide]",0.17
3,O=C(N[C@@H]1CCCC[C@@H]1O)c1ccc2c(-c3ccccc3Cl)nn(-c3ccc(F)cc3)c2c1 (racemic) [Example 66],0.068
4,O=C(N[C@@H]1CCCC[C@H]1O)c1ccc2c(-c3ccccc3Cl)nn(-c3ccc(F)cc3)c2c1 (racemic) [Example 67],0.04
5,"O=C(NC1(CO)CCc2ccccc21)c1ccc2c(-c3ccccc3Cl)nn(-c3ccc(F)cc3)c2c1 (racemic) [Example 75, 3-(2-chlorophenyl)-1-(4-fluorophenyl)-N-[1-(hydroxymethyl)-2,3-dihydro-1H-inden-1-yl]-1H-indazole-6-carboxamide]",0.357
6,"O=C(NC1CCOC1)c1ccc2c(-c3ccccc3Cl)nn(-c3ccc(F)cc3)c2c1 (racemic) [Example 77, 3-(2-chlorophenyl)-1-(4-fluorophenyl)-N-(tetrahydrofuran-3-yl)-1H-indazole-6-carboxamide]",0.059
7,"O=C(NC(CO)C1CC1)c1ccc2c(-c3ccccc3Cl)nn(-c3ccc(F)cc3)c2c1 (racemic) [Example 78, 3-(2-chlorophenyl)-N-(1-cyclopropyl-2-hydroxyethyl)-1 (4-fluorophenyl)-1H-indazole-6-carboxamide]",0.353
8,"O=C(NC1CCC(O)C1)c1ccc2c(-c3ccccc3Cl)nn(-c3ccc(F)cc3)c2c1 (racemic) [Example 83, 3-(2-chlorophenyl)-1-(4-fluorophenyl)-N-(3-hydroxycyclopentyl)-1H-indazole-6-carboxamide]",0.276
9,"COC(=O)C1(NC(=O)c2ccc3c(-c4ccccc4Cl)nn(-c4ccc(F)cc4)c3c2)CC[S+]([O-])C1 (racemic) [Example 89, methyl 3-({[3-(2-chlorophenyl)-1-(4-fluorophenyl)-1H-indazol-6-yl]carbonyl}amino)tetra-hydrothiophene-3-carboxylate 1-oxide]",0.125
10,"O=C(NC(CCN1CCOCC1)c1ccccc1)c1ccc2c(-c3ccccc3Cl)nn(-c3ccc(F)cc3)c2c1 (racemic) [Example 109, 3-(2-chlorophenyl)-1-(4-fluorophenyl)-N-(3-morpholin-4-yl-1-phenylpropyl)-1H-indazole-6-carboxamide]",0.532
11,"CC(Cc1ccccn1)NC(=O)c1ccc2c(-c3ccccc3Cl)nn(-c3ccc(F)cc3)c2c1 (racemic) [Example 112, 3-(2-chlorophenyl)-1-(4-fluorophenyl)-N-(1-methyl-2-pyridin-2-ylethyl)-1H-indazole-6-carboxamide]",0.593
12,"CC(O)CC(C)(C)NC(=O)c1ccc2c(-c3ccccc3Cl)nn(-c3ccc(F)cc3)c2c1 (racemic) [Example 113, 3-(2-chlorophenyl)-1-(4-fluorophenyl)-N-(3-hydroxy-1,1-dimethylbutyl)-1H-indazole-6-carboxamide]",0.041
13,"O=C(NC1CCS(=O)(=O)C1)c1ccc2c(-c3ccccc3Cl)nn(Cc3ccccc3)c2c1 (racemic) [Example 167, (±)-1-Benzyl-3-(2-chlorophenyl-N-(1,1-dioxidotetrahydrothiophen-3-yl)-1-indazole-6-carboxamide]",0.383

# The remaining lines, values ahead:
row,IC50 [µM],SMILES
1,0.09,"COC(=O)C1(NC(=O)c2ccc3c(-c4ccccc4Cl)nn(-c4ccc(F)cc4)c3c2)CCS(=O)(=O)C1 (racemic) [Example 90, methyl 3-({[3-(2-chlorophenyl)-1-(4-fluorophenyl)-1H-indazol-6-yl]carbonyl}amino)tetra-hydrothiophene-3-carboxylate 1,1-dioxide]"
2,0.572,"CC(C)(C)OC(=O)N1CCS(=O)(=O)CC(NC(=O)c2ccc3c(-c4ccccc4Cl)nn(-c4ccc(F)cc4)c3c2)C1 (racemic) [Example 91, tert-butyl 6-({[3-(2-chlorophenyl)-1-(4-fluorophenyl)-1H-indazol-6-yl]carbonyl}amino)-1,4-thiazepane-4-carboxylate 1,1-dioxide]"
3,0.372,"O=C(NC1(CO)CCS(=O)(=O)C1)c1ccc2c(-c3ccccc3Cl)nn(-c3ccc(F)cc3)c2c1 (racemic) [Example 92, 3-(2-chlorophenyl)-1-(4-fluorophenyl)-N-[3-(hydroxymethyl)-1,1-dioxidotetrahydrothiophen-3-yl]-1H-indazole-6-carboxamide]"
4,0.045,"O=C(NC1(CO)CCSC1)c1ccc2c(-c3ccccc3Cl)nn(-c3ccc(F)cc3)c2c1 (racemic) [Example 98, 3-(2-chlorophenyl)-1-(4-fluorophenyl)-N-[3-(hydroxymethyl)tetrahydrothiophen-3-yl]-1H-indazole-6-carboxamide]"
5,0.179,"O=C(NC1CNCCS(=O)(=O)C1)c1ccc2c(-c3ccccc3Cl)nn(-c3ccc(F)cc3)c2c1 (racemic) [Example 102, 3-(2-chlorophenyl)-N-(1,1-dioxido-1,4-thiazepan-6-yl)-1-(4-fluorophenyl)-1H-indazole-6-carboxamide]"
6,0.855,"CN(C)C(=O)c1cccc(-c2nn(-c3ccc(F)cc3)c3cc(C(=O)NC4(C)CCS(=O)(=O)C4)ccc23)c1 (racemic) [Example 148, 3-[3-(dimethylcarbamoyl)phenyl]-1-(4-fluorophenyl)-N-(3-methyl-1,1-dioxidotetrahydrothiophen-3-yl)-1H-indazole-6-carboxamide]"
7,0.249,"CC1(NC(=O)c2ccc3c(-c4cccc(C(N)=O)c4)nn(-c4ccc(F)cc4)c3c2)CCS(=O)(=O)C1 (racemic) [Example 149, 3-(3-carbamoylphenyl)-1-(4-fluorophenyl)-N-(3-methyl-1,1-dioxidotetrahydrothiophen-3-yl)-1H-indazole-6-carboxamide]"
8,0.311,"CC1(NC(=O)c2ccc3c(-c4cccc(C(C)(C)O)c4)nn(-c4ccc(F)cc4)c3c2)CCS(=O)(=O)C1 (racemic) [Example 150, 1-(4-fluorophenyl)-3-[3-(1-hydroxy-1-methylethyl)phenyl]-N-(3-methyl-1,1-dioxidotetrahydrothiophen-3-yl)-1H-indazole-6-carboxamide]"
9,0.34,"Cn1nnc2ccc(-c3nn(-c4ccc(F)cc4)c4cc(C(=O)NC5(C)CCS(=O)(=O)C5)ccc34)cc21 (racemic) [Example 163, 1-(4-fluorophenyl)-3-(1-methyl-1H-benzotriazol-6-yl)-N-(3-methyl-1,1-dioxidotetrahydrothiophen-3-yl)-1H-indazole-6-carboxamide]"
10,0.028,"Cc1nnc(-c2cccc(-c3nn(-c4ccc(F)cc4)c4cc(C(=O)NC5(C)CCS(=O)(=O)C5)ccc34)c2)o1 (racemic) [Example 164, 1-(4-fluorophenyl)-N-(3-methyl-1,1-dioxidotetrahydrothiophen-3-yl)-3-[3-(5-methyl-1,3,4-oxadiazol-2-yl)phenyl]-1H-indazole-6-carboxamide]"
11,0.007,"CC1(NC(=O)c2ccc3c(-c4cccc(-n5cccn5)c4)nn(-c4ccc(F)cc4)c3c2)CCS(=O)(=O)C1 (racemic) [Example 165, 1-(4-fluorophenyl)-N-(3-methyl-1,1-dioxidotetrahydrothiophen-3-yl)-3-[3-(1H-pyrazol-1-yl)phenyl]-1H-indazole-6-carboxamide]"
12,0.222,"COC(=O)c1cccc(-n2nc(-c3ccccc3Cl)c3ccc(C(=O)NC4(C)CCS(=O)(=O)C4)cc32)c1 (racemic) [Example 180, methyl 3-{3-(2-chlorophenyl)-6-[(3-methyl-1,1-dioxidotetrahydrodioxidotetra-hydrodioxidotetrahydrodioxido-tetrahydro-thiophen-3-yl)carbamoyl]-1H-indazol-1-yl}benzoate]"

# — patent publication US11104690B2, “Indazole derivatives useful as inhibitors of diacylglyceride O-acyltransferase 2” (Merck Sharp & Dohme Corp., priority 2016, dated 2021)
